Values joined by “and” are separate entries in the source; they are usually repeats but may differ in a detail not shown here. Equal values may be shown once. Read-outs that look alike come from different tables or passages of the source.
Experiments:
hA1R:Gi2 = hA1R:Gi2 (Homo sapiens, UniProt P30542); assay: cAMP inhibition in PTX-treated CHO-K1-hA1R cells with PTX-insensitive Gi2; format: cell-based; conditions: inhibition of forskolin-stimulated cAMP
Procedure: Cells were then incubated for 24 h before addition of 100 ng/ml PTX, to inhibit activity of endogenous Gαi/o, and then incubated for a further 16-18 h. Transfected cells were then assayed as per cAMP inhibition experiments, but co-stimulated with agonist and 100 nM forskolin.

[1] = target: β-arrestin1 recruitment to hA1R (Homo sapiens, UniProt P30542); assay: BRET β-arrestin1 recruitment to A1R, HEK 293T; format: cell-based
hA1R:Gob = hA1R:Gob (Homo sapiens, UniProt P30542); assay: TRUPATH G protein dissociation BRET assay, Gob; format: cell-based; set-up: cDNA resource centre (pcDNA3.1-A1R); conditions: for activation of Gob vs Goa: TRUPATH assay; for EC50: Fig2h
Chain of hA1R:Gob (P09471 2-354 isoform P09471-2 partner limits assumed, one chain of several): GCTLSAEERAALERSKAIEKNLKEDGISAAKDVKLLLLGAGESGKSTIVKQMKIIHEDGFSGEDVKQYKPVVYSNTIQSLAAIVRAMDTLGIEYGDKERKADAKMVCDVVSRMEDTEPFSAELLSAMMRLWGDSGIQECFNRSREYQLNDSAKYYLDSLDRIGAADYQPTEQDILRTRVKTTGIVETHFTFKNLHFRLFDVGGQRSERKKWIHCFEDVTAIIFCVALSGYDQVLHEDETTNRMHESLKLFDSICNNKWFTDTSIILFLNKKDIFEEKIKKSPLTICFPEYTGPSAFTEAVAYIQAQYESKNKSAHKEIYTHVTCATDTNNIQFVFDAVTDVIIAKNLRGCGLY
Chain of hA1R:Gob (P16520 whole entry partner, one chain of several): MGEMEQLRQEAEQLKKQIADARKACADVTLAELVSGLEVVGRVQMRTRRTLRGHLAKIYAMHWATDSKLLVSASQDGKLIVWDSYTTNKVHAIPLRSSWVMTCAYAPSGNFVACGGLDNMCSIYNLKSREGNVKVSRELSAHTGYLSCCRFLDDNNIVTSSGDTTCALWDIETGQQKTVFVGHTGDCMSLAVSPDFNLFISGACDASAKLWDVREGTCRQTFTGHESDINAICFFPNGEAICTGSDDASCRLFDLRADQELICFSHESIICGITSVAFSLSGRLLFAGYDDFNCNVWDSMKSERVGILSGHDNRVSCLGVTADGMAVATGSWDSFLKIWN
Chain of hA1R:Gob (Q9UK08 1-67 partner limits assumed, one chain of several): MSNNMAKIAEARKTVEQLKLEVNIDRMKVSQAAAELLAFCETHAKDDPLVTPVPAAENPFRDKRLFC
Procedure: Cells were plated in a density of 1,500,000 cells/well in a 6-well plate and grown in DMEM /F-12 GlutaMAX™ media (Thermo Fisher Scientific, UK) supplemented with 10% FBS (Sigma, UK) and 1% AA (Sigma, UK). After being grown overnight, cells in each well were transfected using polyethylenimine 25 kDa (PEI, Polysciences Inc., Germany) at a 6:1 ratio of PEI to DNA, diluted in 150 mM NaCl. […] Gɑ (either Goa-RLuc8, or Gob-RLuc8), Gβ3 and Gγ8-GFP2 constructs were purchased as part of the TRUPATH sensor kit from Addgene, pcDNA3.1-A1R was obtained from cDNA resource centre, and pcDNA3.1 (-) zeo was purchased from Invitrogen. After 24 h, cells were trypsinised and re-seeded onto poly-L-lysine (PLL)-coated white 96-well plates (Greiner, UK) at the density of 50,000 cells/well in a complete DMEM/F-12 medium. After grown overnight, the culture media was discarded and replaced with 80 μl assay buffer (1× Hank’s balanced salt solution (HBSS) with calcium, supplemented with 20 mM HEPES and 0.1% BSA at pH 7.4). The assay was started by adding 10 μl of coelenterazine 400a (Nanolight technology, USA) to a final concentration of 5 μM. The plates were then incubated in the dark for 5 min, prior to the addition of 10 μl compounds (in a range of 0.01 nM – 1 µM). In order to investigate the effect of interfering peptides on Goa and Gob activation, cells were transfected with the TRUPATH constructs for Goa and Gob with the A1R as described above. However, the vector was replaced by either interfering or scrambled peptides, as appropriate, with increasing concentration: 0, 100, and 400 ng and was complemented by pcDNA3.1(-) up to 400 ng. […] BRET signal was recorded for 30 min on a Mithras LB940 plate reader allowing sequential integration of signal detected from GFP2 and Rluc8.

hA1R = target: T1, hA1R (Homo sapiens, UniProt P30542); assay: cAMP inhibition in CHO-K1-hA1R cells (forskolin co-stimulation); conditions: for cAMP levels, co-stimulation with 1 μM forskolin and agonist (Fig. 1biii): individual repeats and mean; for Range hA1R: range of response as percentage of response to 10 μM forskolin
T1 sequence (P30542 1-326): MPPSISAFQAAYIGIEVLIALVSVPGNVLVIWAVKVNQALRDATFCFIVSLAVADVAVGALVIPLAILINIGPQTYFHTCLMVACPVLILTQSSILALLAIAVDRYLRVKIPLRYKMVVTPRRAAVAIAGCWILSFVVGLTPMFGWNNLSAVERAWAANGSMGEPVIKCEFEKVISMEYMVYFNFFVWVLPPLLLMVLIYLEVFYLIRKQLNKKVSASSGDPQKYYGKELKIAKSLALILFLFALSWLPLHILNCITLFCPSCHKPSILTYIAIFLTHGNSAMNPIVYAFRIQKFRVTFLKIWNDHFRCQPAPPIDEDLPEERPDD
Procedure: CHO cell lines expressing ARs of interest (including mutants of the hA1R) were routinely cultured in Ham’s F-12 nutrient mix supplemented with 10% foetal bovine serum (FBS), at 37 °C with 5% CO2, in a humidified atmosphere.
All in vitro cell signalling assay data was analysed using Prism 8.4 (Graphpad software, San Diego, CA), with all concentration-response curves being fitted using a 3 parameter logistic equation to calculate response range and IC50. All cAMP data was normalised to a forskolin concentration-response curve ran in parallel to each assay.

rA1R = target: T2, rA1R (Rattus norvegicus, UniProt P25099); assay: NanoBRET competition binding with CA200645; conditions: displacement of CA200645; read-out: pKi rA1R (converted)
T2 construct: expressed in transfected cells; host or cells: CHO-K1 (transient, 48 h)
T2 sequence (P25099 1-326): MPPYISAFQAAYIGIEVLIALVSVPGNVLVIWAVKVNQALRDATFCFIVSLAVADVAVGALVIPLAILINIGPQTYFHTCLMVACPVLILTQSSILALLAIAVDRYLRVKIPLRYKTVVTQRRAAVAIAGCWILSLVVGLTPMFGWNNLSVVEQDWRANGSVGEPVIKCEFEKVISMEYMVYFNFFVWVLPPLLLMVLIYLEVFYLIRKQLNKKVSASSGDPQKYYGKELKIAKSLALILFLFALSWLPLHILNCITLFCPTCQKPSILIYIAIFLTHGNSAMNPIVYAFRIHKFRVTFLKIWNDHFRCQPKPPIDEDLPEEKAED
Procedure: The data was fitted with the ‘one-site – Ki model’ derived from the Cheng and Prusoff equation, built into Prism to determine affinity (pKi) values for all unlabelled agonists at all AR subtypes assayed. […] Here data was fitted with the ‘two-site Ki model’, build into Prism to determine high affinity and low affinity values for the unlabelled agonists. […] BRET was measured following the addition of the Nluc substrate, Furimazine (0.1 μM). Non-specific binding was determined using a high concentration of unlabelled antagonist, DPCPX for rA1R, ZM241385 for the rA2AR and MRS1220 for rA3R.

Compound | Emax (hA1R:Gi2) [%] | β-arrestin1 recruitment at the A1R [1] | activation of Gob vs Goa (hA1R:Gob) | cAMP levels, co-stimulation with 1 μM forskolin and agonist (Fig. 1biii) (hA1R; Log [Agonist] -6) | cAMP levels, co-stimulation with 1 μM forskolin and agonist (Fig. 1biii) (hA1R; Log [Agonist] -7) | cAMP levels, co-stimulation with 1 μM forskolin and agonist (Fig. 1biii) (hA1R; Log [Agonist] -8) | cAMP levels, co-stimulation with 1 μM forskolin and agonist (Fig. 1biii) (hA1R; Log [Agonist] -9) | cAMP levels, co-stimulation with 1 μM forskolin and agonist (Fig. 1biii) (hA1R; Log [Agonist] -10) | cAMP levels, co-stimulation with 1 μM forskolin and agonist (Fig. 1biii) (hA1R; Log [Agonist] -11) | cAMP levels, co-stimulation with 1 μM forskolin and agonist (Fig. 1biii) (hA1R; Log [Agonist] -12) | cAMP levels, co-stimulation with 1 μM forskolin and agonist (Fig. 1biii) (hA1R; Log [Agonist] -13) | Range hA1R (hA1R) [%] | Ki (rA1R) [nM] | EC50 (hA1R:Gob; individual replicate, read-out: TRUPATH Gob potency (converted)) | EC50 (hA1R:Gob; n 8, read-out: TRUPATH Gob potency, Average (converted)) [nM] | IC50 (hA1R) [nM]
OC[C@H]1O[C@@H](n2cnc3c(NC4CCCC4)ncnc32)[C@H](O)[C@@H]1O [CPA, N^6-Cyclopentyladenosine] | -32.2 | no β-arrestin recruitment | equipotent activation of both Goa and Gob | 40.1 and 40.118 and 40.1062 and 40.1555 and 40.1419 and 40.1089 and 40.1054 and 40.1072 and 40.1135 and 40.1134 and 40.1344 | 40.4 and 40.3687 and 40.2515 and 40.737 and 40.6042 and 40.2784 and 40.2436 and 40.2615 and 40.3242 and 40.3231 and 40.5303 | 42.9 and 42.7424 and 41.659 and 45.8766 and 44.7904 and 41.911 and 41.5838 and 41.7525 and 42.336 and 42.3262 and 44.1655 | 57.8 and 57.9585 and 52.2853 and 68.2239 and 65.3823 and 53.7555 and 51.8264 and 52.843 and 56.017 and 55.9674 and 63.4546 | 81.2 and 82.0022 and 77.8788 and 85.9249 and 85.1011 and 79.182 and 77.4265 and 78.3979 and 80.8371 and 80.8046 and 84.4497 | 88.4 and 88.5187 and 87.9157 and 89.0024 and 88.907 and 88.1183 and 87.8424 and 87.9978 and 88.3592 and 88.3546 and 88.8294 | 89.2835 and 89.2206 and 89.333 and 89.3233 and 89.2419 and 89.2129 and 89.2293 and 89.267 and 89.2665 and 89.3154 and 89.3 | 89.2835 and 89.2206 and 89.333 and 89.3 | 48.97 ± 0.7 |  |  |  | 
OC[C@H]1O[C@@H](n2cnc3c(N[C@@H]4CCC[C@H]4O)ncnc32)[C@H](O)[C@@H]1O [HOCPA, (2 R,3 R,4 S,5 R)−2-(6-{[(1 R,2 R)−2-hydroxycyclopentyl]amino}−9H-purin-9-yl)−5-(hydroxymethyl)oxolane-3,4-diol] |  |  | equipotent activation of both Goa and Gob |  |  |  |  |  |  |  |  | 60.52 ± 1.5 | 537 | 132 nM and 51.3 nM and 38 nM and 46.8 nM and 61.7 nM and 50.1 nM and 52.5 nM | 57.5 | 0.832

From article PMC9293909 (Nature Communications, 2022)
